Source: ChEMBL document CHEMBL3745710, “Synthesis, antibacterial and anti-MRSA activity, in vivo toxicity and a structure-activity relationship study of a quinoline thiourea” (Bioorg Med Chem Lett, 2016)
≈ marks a conversion by molar mass, not a printed value. Calls of active or inactive are those of the source. The calls are words filed in the database; no cut-off is given here.

Legend:
Staphylococcus aureus [1] = test: Antibacterial activity against methicillin-resistant Staphylococcus aureus after 24 hrs by serial dilution method; type: functional
Pseudomonas aeruginosa = test: Antibacterial activity against Pseudomonas aeruginosa ATCC 10145 after 24 hrs by serial dilution method; type: functional, organism-based
Staphylococcus aureus [2] = test: Antibacterial activity against Staphylococcus aureus NCIMB 12702 after 24 hrs by serial dilution method; type: functional; conditions: Staphylococcus aureus, NCIMB 12702, 24 h
Escherichia coli = test: Antibacterial activity against Escherichia coli NCIMB 9485 after 24 hrs by serial dilution method; type: functional; conditions: NCIMB 9485, 24 h
[3] = Toxicity in sixth development stage of Galleria mellonella larvae assessed as survival rate at 100 ug/ml after 72 hrs; type: organism-based; conditions: in vivo
[4] = Toxicity in sixth development stage of Galleria mellonella larvae assessed as survival rate at 1000 ug/ml after 48 hrs; type: organism-based; conditions: in vivo
[5] = Toxicity in sixth development stage of Galleria mellonella larvae assessed as survival rate at 1 ug/ml after 24 hrs; type: organism-based; conditions: in vivo
[6] = Toxicity in sixth development stage of Galleria mellonella larvae assessed as survival rate at 10 ug/ml after 72 hrs; type: organism-based; conditions: in vivo
[7] = Toxicity in sixth development stage of Galleria mellonella larvae assessed as survival rate at 10 ug/ml after 24 hrs; type: organism-based; conditions: in vivo
[8] = Toxicity in sixth development stage of Galleria mellonella larvae assessed as survival rate at 1 ug/ml after 48 hrs; type: organism-based; conditions: in vivo
[9] = Toxicity in sixth development stage of Galleria mellonella larvae assessed as survival rate at 1000 ug/ml after 24 hrs; type: organism-based; conditions: in vivo
Galleria mellonella = test: Toxicity in sixth development stage of Galleria mellonella larvae assessed as larvae pupation at 1 to 1000 ug/ml after 7 days relative to control; type: organism-based; conditions: in vivo, 168 h
[10] = Toxicity in sixth development stage of Galleria mellonella larvae assessed as survival rate at 10 ug/ml after 48 hrs; type: organism-based; conditions: in vivo
[11] = Toxicity in sixth development stage of Galleria mellonella larvae assessed as survival rate at 100 ug/ml after 48 hrs; type: organism-based; conditions: in vivo
[12] = Toxicity in sixth development stage of Galleria mellonella larvae assessed as survival rate at 50 ug/ml after 24 hrs; type: organism-based; conditions: in vivo
[13] = Toxicity in sixth development stage of Galleria mellonella larvae assessed as survival rate at 100 ug/ml after 24 hrs; type: organism-based; conditions: in vivo
[14] = Toxicity in sixth development stage of Galleria mellonella larvae assessed as survival rate at 1 ug/ml after 72 hrs; type: organism-based; conditions: in vivo
[15] = Toxicity in sixth development stage of Galleria mellonella larvae assessed as survival rate at 50 ug/ml after 48 hrs; type: organism-based; conditions: in vivo
[16] = Toxicity in sixth development stage of Galleria mellonella larvae assessed as survival rate at 1000 ug/ml after 72 hrs; type: organism-based; conditions: in vivo
[17] = Toxicity in sixth development stage of Galleria mellonella larvae assessed as survival rate at 50 ug/ml after 72 hrs; type: organism-based; conditions: in vivo

SMILES: CN[C@@H](CC(C)C)C(=O)N[C@H]1C(=O)N[C@@H](CC(N)=O)C(=O)N[C@H]2C(=O)N[C@H]3C(=O)N[C@H](C(=O)N[C@@H](C(=O)O)c4cc(O)cc(O)c4-c4cc3ccc4O)[C@H](O)c3ccc(c(Cl)c3)Oc3cc2cc(c3O[C@H]2O[C@@H](CO)[C@H](O)[C@@H](O)[C@@H]2O[C@@H]2C[C@@](C)(N)[C@@H](O)[C@@H](C)O2)Oc2ccc(cc2Cl)[C@H]1O
- MIC90 (Staphylococcus aureus [1]): 1.35 µM (≈ 1.96 µg/mL)

SMILES: FC(F)(F)c1cc(NC(=S)NC2CCCCC2)cc(C(F)(F)F)c1
- MIC (Pseudomonas aeruginosa): inactive
- MIC50 (Staphylococcus aureus [2]): 135 µM (≈ 50 µg/mL)
- MIC90 (Staphylococcus aureus [2]): > 270 µM
- MIC50 (Escherichia coli): 101 µM (≈ 37.5 µg/mL)
- MIC90 (Escherichia coli): > 270 µM

SMILES: CCC1CN2CCC1CC2[C@@H](OC(=O)c1ccc(Cl)cc1)c1ccnc2ccc(OC)cc12 (some centres not stated)
- MIC (Pseudomonas aeruginosa): inactive
- MIC90 (Staphylococcus aureus [2]): 79.4 µM (≈ 36.9 µg/mL)
- MIC90 (Escherichia coli): > 200 µM

SMILES: C=C[C@H]1CN2CC[C@H]1C[C@H]2CNC(=S)Nc1cc(C(F)(F)F)cc(C(F)(F)F)c1
- MIC50 (Staphylococcus aureus [1]): 20.7 µM (≈ 9.07 µg/mL)
- MIC90 (Staphylococcus aureus [1]): 31.4 µM (≈ 13.8 µg/mL)
- survival at 72 h [3]: 100%
- MIC (Pseudomonas aeruginosa): inactive
- MIC50 (Staphylococcus aureus [2]): 42.9 µM (≈ 18.8 µg/mL)
- MIC80 (Staphylococcus aureus [2]): 85.8 µM (≈ 37.5 µg/mL)
- MIC90 (Staphylococcus aureus [2]): 85.8 µM (≈ 37.5 µg/mL)
- survival at 48 h [4]: 100%
- survival at 24 h [5]: 100%
- MIC50 (Escherichia coli): 42.9 µM (≈ 18.8 µg/mL)
- MIC80 (Escherichia coli): 85.8 µM (≈ 37.5 µg/mL)
- MIC90 (Escherichia coli): 85.8 µM (≈ 37.5 µg/mL)
- survival at 72 h [6]: 100%
- survival at 24 h [7]: 100%
- survival at 48 h [8]: 100%
- survival at 24 h [9]: 100%
- Activity (Galleria mellonella): Non-toxic
- survival at 48 h [10]: 100%
- survival at 48 h [11]: 100%
- survival at 24 h [12]: 100%
- survival at 24 h [13]: 100%
- survival at 72 h [14]: 100%
- survival at 48 h [15]: 100%
- survival at 72 h [16]: 100%
- survival at 72 h [17]: 100%

SMILES: C=C[C@H]1CN2CC[C@H]1C[C@H]2[C@@H](N)c1ccnc2ccc(OC)cc12
- MIC (Pseudomonas aeruginosa): inactive
- MIC50 (Staphylococcus aureus [2]): > 309 µM
- MIC90 (Staphylococcus aureus [2]): > 309 µM
- MIC50 (Escherichia coli): > 309 µM
- MIC90 (Escherichia coli): 309 µM (≈ 100 µg/mL)

SMILES: CCC1CN2CCC1C[C@@H]2[C@@H](Oc1nnc(O[C@@H](c2ccnc3ccc(OC)cc23)[C@H]2CC3CCN2CC3CC)c2ccccc12)c1ccnc2ccc(OC)cc12 (some centres not stated)
- MIC (Pseudomonas aeruginosa): inactive
- MIC90 (Staphylococcus aureus [2]): 189 µM (≈ 147 µg/mL)
- MIC90 (Escherichia coli): > 200 µM

SMILES: C=C[C@H]1CN2CC[C@H]1C[C@H]2[C@@H](NC(=S)Nc1ccccc1)c1ccnc2ccc(OC)cc12
- survival at 72 h [3]: 100%
- MIC (Pseudomonas aeruginosa): inactive
- MIC50 (Staphylococcus aureus [2]): 54.6 µM (≈ 25 µg/mL)
- MIC90 (Staphylococcus aureus [2]): 164 µM (≈ 75.1 µg/mL)
- survival at 48 h [4]: 100%
- survival at 24 h [5]: 100%
- MIC50 (Escherichia coli): 40.9 µM (≈ 18.8 µg/mL)
- MIC90 (Escherichia coli): 81.8 µM (≈ 37.5 µg/mL)
- survival at 72 h [6]: 100%
- survival at 24 h [7]: 100%
- survival at 48 h [8]: 100%
- survival at 24 h [9]: 100%
- Activity (Galleria mellonella): Non-toxic
- survival at 48 h [10]: 100%
- survival at 48 h [11]: 100%
- survival at 24 h [12]: 100%
- survival at 24 h [13]: 100%
- survival at 72 h [14]: 100%
- survival at 48 h [15]: 100%
- survival at 72 h [16]: 100%
- survival at 72 h [17]: 100%

SMILES: C=C[C@H]1CN2CC[C@H]1C[C@H]2[C@@H](NC(=S)Nc1cc(C(F)(F)F)cc(C(F)(F)F)c1)c1ccnc2ccccc12
- MIC50 (Staphylococcus aureus [1]): 10.8 µM (≈ 6.1 µg/mL)
- MIC90 (Staphylococcus aureus [1]): 18.1 µM (≈ 10.2 µg/mL)
- survival at 72 h [3]: 100%
- MIC (Pseudomonas aeruginosa): inactive
- MIC50 (Staphylococcus aureus [2]): 8.32 µM (≈ 4.7 µg/mL)
- MIC90 (Staphylococcus aureus [2]): 16.6 µM (≈ 9.38 µg/mL)
- survival at 48 h [4]: 100%
- survival at 24 h [5]: 100%
- MIC50 (Escherichia coli): 5.54 µM (≈ 3.13 µg/mL)
- MIC90 (Escherichia coli): 8.32 µM (≈ 4.7 µg/mL)
- survival at 72 h [6]: 100%
- survival at 24 h [7]: 100%
- survival at 48 h [8]: 100%
- survival at 24 h [9]: 100%
- Activity (Galleria mellonella): Non-toxic
- survival at 48 h [10]: 100%
- survival at 48 h [11]: 100%
- survival at 24 h [12]: 100%
- survival at 24 h [13]: 100%
- survival at 72 h [14]: 100%
- survival at 48 h [15]: 100%
- survival at 72 h [16]: 100%
- survival at 72 h [17]: 100%

SMILES: COC(=O)[C@@H]1C[C@H](NC(=S)Nc2cc(C(F)(F)F)cc(C(F)(F)F)c2)CN1
- MIC (Pseudomonas aeruginosa): inactive
- MIC90 (Staphylococcus aureus [2]): > 200 µM
- MIC90 (Escherichia coli): > 200 µM

SMILES: C=CC1CN2CCC1CC2[C@H](OCc1ccccc1)c1ccnc2ccc(OC)cc12 (some centres not stated)
- MIC (Pseudomonas aeruginosa): inactive
- MIC90 (Staphylococcus aureus [2]): > 200 µM
- MIC90 (Escherichia coli): > 200 µM

SMILES: CCNC(=S)Nc1cc(C(F)(F)F)cc(C(F)(F)F)c1
- MIC (Pseudomonas aeruginosa): inactive
- MIC50 (Staphylococcus aureus [2]): > 316 µM
- MIC90 (Staphylococcus aureus [2]): > 316 µM
- MIC50 (Escherichia coli): 158 µM (≈ 50 µg/mL)
- MIC90 (Escherichia coli): > 316 µM
